A word on the IC50: it is the concentration that gives 50% inhibition.

Sequence of PAR4 (Q96RI0 18-385): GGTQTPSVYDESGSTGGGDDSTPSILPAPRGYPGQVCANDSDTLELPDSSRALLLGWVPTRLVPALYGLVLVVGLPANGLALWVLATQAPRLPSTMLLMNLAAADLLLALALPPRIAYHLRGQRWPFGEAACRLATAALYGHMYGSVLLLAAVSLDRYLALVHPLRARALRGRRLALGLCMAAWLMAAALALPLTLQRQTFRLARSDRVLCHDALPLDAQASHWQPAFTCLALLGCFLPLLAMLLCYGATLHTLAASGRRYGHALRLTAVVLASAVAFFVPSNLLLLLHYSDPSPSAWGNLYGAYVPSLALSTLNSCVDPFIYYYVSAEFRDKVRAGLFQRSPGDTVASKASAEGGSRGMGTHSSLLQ

In the assay the target is PAR4 (Homo sapiens (Human), UniProt Q96RI0). Briefly: FLIPR assay in PAR4-expressing HEK293 cells (PAR4 antagonist activity, calcium mobilization). The note with it: FLIPR assay as described in Example A. The format is cell-based. A digest of the protocol:
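HEK293 cells stably expressing human PAR4 (also endogenous PAR1) in HBSS/10 mM HEPES, 0.67% DMSO final. Compound added and read for agonist activity, then 30 min room temperature before PAR4 agonist peptide; intracellular calcium mobilization monitored by FDSS/FLIPR.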
A general note: A change in cytosolic calcium serves as a functional read-out for many receptors and channels.
For the molecule `COc1cc(OCc2cccc(OCc3cc(C)cc(C)c3)c2)c2cc(-c3cn4nc(OC)sc4n3)oc2c1` [Example 382], the half-inhibitory concentration (IC50) stood at 0.00167 µM. In the case of `CCc1nn2cc(-c3nc4ccc(OC5CCC5)cc4o3)nc2s1` [Example 75], the IC50 stood at 0.294 µM. The value for `COc1nn2cc(-c3cc4c(C)cc(C)cc4o3)nc2s1` [Example 297] was 0.00588 µM; that for `COc1nn2cc(-c3cc4c(Br)ccc(OC)c4o3)nc2s1` [Example 289] was 0.0296 µM; that for `COc1nn2cc(-c3cc4cc([N+](=O)[O-])ccc4o3)nc2s1` [Example 100] was 0.0714 µM.

`COc1cc(OCc2cccc(OCc3cc(C(F)(F)F)ccc3C)c2)c2cc(-c3cn4nc(OC)sc4n3)oc2c1` [Example 396]: the 50% inhibitory concentration (IC50) came out at 0.00451 µM. For `COc1cccc2oc(-c3cn4nc(SC)sc4n3)nc12` [Example 149], the IC50 turned out to be 0.0136 µM. The value for `COc1cc(OC[C@@H]2COC(C)(C)O2)c2cc(-c3cn4nc(OC)sc4n3)oc2c1` [Example 339, (R)-6-(4-((2,2-Dimethyl-1,3-dioxolan-4-yl)methoxy)-6-methoxybenzofuran-2-yl)-2-methoxyimidazo[2,1-b][1,3,4]thiadiazole] was 0.00087 µM.

Consider `CSc1nn2cc(-c3nc4c(OCc5ccncc5)cccc4o3)nc2s1` [Example 167], for which the half-inhibitory concentration (IC50) is 0.785 µM.

Consider `CSc1nn2cc(-c3nc4ccc(OCC5CC5)cc4o3)nc2s1` [Example 174], for which the IC50 came to 0.167 µM. For the molecule `COc1nn2cc(-c3nc4cc(Cl)ccc4o3)nc2s1` [Example 130], the 50% inhibitory concentration (IC50) was 0.0413 µM. The value for `CC(F)c1nn2cc(-c3nc4ccccc4s3)nc2s1` (stereo not shown) [Example 186, 2-(2-(1-Fluoroethyl)imidazo[2,1-b][1,3,4]thiadiazol-6-yl)benzo[d]thiazole] was 0.252 µM; that for `CCc1nn2cc(-c3cc4cccc(OCCCC#N)c4o3)nc2s1` [Example 66] was 2.62 µM; that for `CC(F)(F)c1nn2cc(-c3nc4c([N+](=O)[O-])cccc4o3)nc2s1` [Example 123, 2-(2-(1,1-Difluoroethyl)imidazo[2,1-b][1,3,4]thiadiazol-6-yl)-4-nitrobenzo[d]oxazole] was 1.12 µM. As to `CSc1nn2cc(-c3nc4ccc(F)cc4s3)nc2s1` [Example 191], the IC50 worked out at 0.0307 µM. In the case of `CSc1nn2cc(-c3cc4c(O)cccc4o3)nc2s1` [Example 214, 2-(2-(Methylthio)imidazo[2,1-b][1,3,4]thiadiazol-6-yl)benzofuran-4-ol] it was 0.322 µM; in that of `COc1nn2cc(-c3nc4ccccc4o3)nc2s1` [Example 111, 2-(2-Methoxyimidazo[2,1-b][1,3,4]thiadiazol-6-yl)benzo[d]oxazole], 0.14 µM.

On to `COc1cc(OCc2cc(OCc3ccccc3)cc(C(F)(F)F)c2)c2cc(-c3cn4nc(OC)sc4n3)oc2c1` [Example 400], for which the IC50 was determined as 0.00747 µM. The value for `COc1cc(OCc2ccccc2)c2nc(-c3cn4nc(SC)sc4n3)oc2c1` [Example 119, 4-(Benzyloxy)-6-methoxy-2-(2-(methylthio)imidazo[2,1-b][1,3,4]thiadiazol-6-yl)benzo[d]oxazole] was 0.0106 µM; that for `CC(F)(F)c1nn2cc(-c3nc4c(Cl)cccc4s3)nc2s1` [Example 198] was 4.71 µM. In the case of `COc1cc(OCc2cccc(OCc3ccc(Cl)cc3Cl)c2)c2cc(-c3cn4nc(OC)sc4n3)oc2c1` [Example 378] it was 0.00738 µM; in that of `CCc1nn2cc(-c3nc4cc(F)ccc4o3)nc2s1` [Example 49], 0.361 µM; in that of `COc1nn2cc(-c3cc4c(OCc5cccc(OCc6ccccc6)c5)cc(NC(C)=O)cc4o3)nc2s1` [Example 412, N-(4-((3-(Benzyloxy)benzyl)oxy)-2-(2-methoxyimidazo[2,1-b][1,3,4]thiadiazol-6-yl)benzofuran-6-yl)acetamide], 0.0725 µM.

On to `COc1cc(OCc2cccc(OCc3c(C)cc(C)cc3C)c2)c2cc(-c3cn4nc(OC)sc4n3)oc2c1` [Example 377], for which the 50% inhibitory concentration (IC50) turned out to be 0.00691 µM. `CSc1nn2cc(-c3cc4c(C)cc(C)cc4o3)nc2s1` [Example 295]: the half-maximal inhibitory concentration (IC50) is 0.0121 µM. In the case of `COc1cc(OC)c2cc(-c3cn4nc(SC)sc4n3)oc2c1` [Example 229] it was 0.00122 µM. The value for `CSc1nn2cc(-c3cc4c(C(=O)O)cccc4o3)nc2s1` [Example 219, 2-(2-(Methylthio)imidazo[2,1-b][1,3,4]thiadiazol-6-yl)benzofuran-4-carboxylic acid] was 1.28 µM; that for `CSc1nn2cc(-c3nc4ccc(OCc5cccnc5)cc4o3)nc2s1` [Example 145] was 0.286 µM; that for `CCOC(=O)CCCCCOc1cccc2cc(-c3cn4nc(CC)sc4n3)oc12` [Example 65] was 1.47 µM. The value for `COc1cc(OCc2cccc(OCc3cc(F)cc(OCc4ccccc4)c3)c2)c2cc(-c3cn4nc(OC)sc4n3)oc2c1` [Example 395] was 0.0383 µM. On to `COc1cc(OC)c2nc(-c3cn4nc(SC)sc4n3)oc2c1` [Example 177], for which the 50% inhibitory concentration (IC50) was 0.00378 µM. `CC(F)(F)c1nn2cc(-c3cc4c(Cl)cc(Cl)cc4o3)nc2s1` [Example 238]: the IC50 stood at 0.0425 µM.

For `CSc1nn2cc(-c3nc4cc(C)c(C)cc4o3)nc2s1` [Example 133], the IC50 was determined as 0.0197 µM.

For the molecule `COc1ccc2oc(-c3cn4nc(SC)sc4n3)nc2c1` [Example 141], the IC50 turned out to be 0.041 µM.

For the molecule `COc1cc(OCc2cccc(OCc3ccc(OCc4ccccc4)cc3)c2)c2cc(-c3cn4nc(OC)sc4n3)oc2c1` [Example 366], the IC50 worked out at 0.164 µM.

Consider `Fc1cccc2oc(-c3cn4nc(Br)sc4n3)cc12` [Example 276], for which the IC50 is 0.12 µM.

Take `COc1cc(OCc2cccc(OCc3cccc(OCc4cccc(Cl)c4)c3)c2)c2cc(-c3cn4nc(OC)sc4n3)oc2c1` [Example 375]: the half-inhibitory concentration (IC50) stood at 0.26 µM. Regarding `COc1cc(Br)c2oc(-c3cn4nc(SC)sc4n3)cc2c1` [Example 283], the half-maximal inhibitory concentration (IC50) stood at 2.71 µM. For the molecule `CCc1nn2cc(-c3nc4ccc(OCc5ccc(Cl)cc5)cc4o3)nc2s1` [Example 83], the half-inhibitory concentration (IC50) is 1.01 µM. With `COc1nn2cc(-c3nc4cc(OC(F)(F)F)ccc4o3)nc2s1` [Example 140], the half-inhibitory concentration (IC50) stood at 0.0689 µM.

As for `CSc1nn2cc(-c3cc4c(Cl)cc(Cl)cc4o3)nc2s1` [Example 287], the half-inhibitory concentration (IC50) is 0.00819 µM. Take `COc1cc(OCc2cccc(OCc3ccc(C)cc3C)c2)c2cc(-c3cn4nc(OC)sc4n3)oc2c1` [Example 312]: the IC50 came to 0.00213 µM. Take `CSc1nn2cc(-c3cc4c(OCc5cccc(OCc6ccccc6)c5)cc(OC(F)F)cc4o3)nc2s1` [Example 424]: the IC50 came to 0.0214 µM.

For the molecule `CCc1nn2cc(-c3nc4ccc(Cl)cc4o3)nc2s1` [Example 40], the half-inhibitory concentration (IC50) came out at 0.122 µM. The value for `COc1nn2cc(-c3cc4cc(F)ccc4o3)nc2s1` [Example 97] was 0.00348 µM. The value for `COc1cc(OCc2cccc(OCc3ccc(C)c(C)c3)c2)c2cc(-c3cn4nc(OC)sc4n3)oc2c1` [Example 381] was 0.00277 µM. The value for `COc1nn2cc(-c3cc4cc(Br)c(OC)cc4o3)nc2s1` [Example 278] was 0.0526 µM.

Consider `COc1cc(OCc2cccc(OCc3cc(F)c(F)c(F)c3)c2)c2cc(-c3cn4nc(OC)sc4n3)oc2c1` [Example 328], for which the IC50 turned out to be 0.0045 µM. In the case of `COc1cc(Br)cc2cc(-c3cn4nc(Br)sc4n3)oc12` [Example 286] it was 0.276 µM; in that of `CSc1nn2cc(-c3cc4ccccc4o3)nc2s1` [Example 1, 6-(Benzofuran-2-yl)-2-(methylthio)imidazo[2,1-b][1,3,4]thiadiazole], 0.014 µM; in that of `COc1nn2cc(-c3nc4cccc(F)c4o3)nc2s1` [Example 144], 0.0913 µM. Regarding `COc1ccc(COc2ccc3nc(-c4cn5nc(SC)sc5n4)oc3c2)cc1` [Example 170], the half-maximal inhibitory concentration (IC50) worked out at 0.116 µM. Regarding `CSc1nn2cc(-c3nc4c(OCC5CC5)cccc4o3)nc2s1` [Example 175], the IC50 turned out to be 0.0413 µM.

Turning to `COc1cc(OCc2cccc(OCc3cccc(Cl)c3)c2)c2cc(-c3cn4nc(OC)sc4n3)oc2c1` [Example 349], the IC50 is 0.00032 µM. In the case of `COc1cc(OCc2cccc(OCc3ccc(F)cc3C(F)(F)F)c2)c2cc(-c3cn4nc(OC)sc4n3)oc2c1` [Example 385] it was 0.00313 µM; in that of `CSc1nn2cc(-c3nc4ccc(OCc5cccc(C#N)c5)cc4o3)nc2s1` [Example 150], 0.621 µM. In the case of `CSc1nn2cc(-c3nc4ccc(OCCF)cc4o3)nc2s1` [Example 118, 6-(2-Fluoroethoxy)-2-(2-(methylthio)imidazo[2,1-b][1,3,4]thiadiazol-6-yl)benzo[d]oxazole] it was 0.191 µM; in that of `CSc1nn2cc(-c3nc4c(OC[C@@H]5CCCN5C(=O)[C@H](NC(=O)c5cccs5)c5ccccc5)cccc4o3)nc2s1` [Example 338, N—((R)-2-((S)-2-(((2-(2-(Methylthio)imidazo[2,1-b][1,3,4]thiadiazol-6-yl)benzo[d]oxazol-4-yl)oxy)methyl)pyrrolidin-1-yl)-2-oxo-1-phenylethyl)thiophene-2-carboxamide], 1.17 µM; in that of `CSc1nn2cc(-c3nc4c(OC[C@H]5CCCN5C(=O)OC(C)(C)C)cccc4o3)nc2s1` [Example 331, (R)-tert-Butyl 2-(((2-(2-(methylthio)imidazo[2,1-b][1,3,4]thiadiazol-6-yl)benzo[d]oxazol-4-yl)oxy)methyl)pyrrolidine-1-carboxylate], 0.0843 µM.

Regarding `COc1cc(OCc2cccc(OCc3c(OC)cccc3OC)c2)c2cc(-c3cn4nc(OC)sc4n3)oc2c1` [Example 388], the half-inhibitory concentration (IC50) turned out to be 0.00312 µM.

For `CSc1nn2cc(-c3nc4ccc(N)cc4o3)nc2s1` [Example 176], the IC50 amounted to 0.701 µM. Consider `COc1cc(OCc2cccc(OCc3ccc(OC)c(OC)c3)c2)c2cc(-c3cn4nc(OC)sc4n3)oc2c1` [Example 389], for which the IC50 worked out at 0.00073 µM. On to `CCOc1cc(OC)cc2oc(-c3cn4nc(OC)sc4n3)cc12` [Example 206], for which the IC50 was determined as 0.00201 µM.

For the molecule `CSc1nn2cc(-c3nc4cc(F)ccc4o3)nc2s1` [Example 126], the IC50 is 0.0104 µM.

The values are drawn from patent US9862730B2, “Imidazothiadiazole derivatives as protease activated receptor 4 (PAR4) inhibitors for treating platelet aggregation” (BRISTOL-MYERS SQUIBB COMPANY, priority 2012, dated 2018).
